Measured values from PMC12664080, “Tetrazole-containing naphthalene bis-sulfonamide Keap1-Nrf2 interaction inhibitors with unexpected binding modes” (Redox Biology, 2025).

Assays:
Keap1 Kelch domain = target: T1, Keap1 Kelch domain (Homo sapiens, UniProt Q14145); assay: Fluorescence polarisation (FP) competition assay; assay type: binding
T1 construct: made in house
Description: The FP assays were carried out according to previously described methods [[23],[31], [32], [33], [34]]. […] Following incubation under slow agitation (30 min at rt in the absence of light), the plates were transferred to a PHERAstar microplate reader and the FP was recorded. All measurements were recorded in triplicate. The data were normalised to the control and then fitted to a standard four-parameter logistic function using the Origin Pro software.

Keap1-mCherry = assay: Keap1-Glow Cellular Thermal Shift Assay (CETSA), U2OS cell lysates; assay type: cell-based; conditions: 10 μM, 1 h at 37 °C
Description: U2OS FRT/TO cells with doxycycline-inducible expression of Keap1-mCherry or mCherry were treated with 0.5 μg/mL of doxycycline for 72–96 h to induce the expression of the fluorescent proteins. Lysates of U2OS cells with doxycycline-inducible expression of Keap1-mCherry or mCherry were prepared by lysing in DPBS with EDTA-free protease inhibitor cocktail (PIC) using at least 22 strokes of the Dounce homogenizer. The lysates were cleared by centrifugation at 9600×g for 5 min at 22 °C and incubated with 10 μM compound 25 or vehicle (0.4 % DMSO) for 1 h at 37 °C [46]. The lysates were then heated for 3 min at the indicated range of temperatures (39 °C–72 °C, with 3 °C increments) using a thermal cycler, and the aggregated material was removed by a high-speed centrifugation at 17,000×g at 4 °C for 40 min or 15,000×g at 4 °C for 1 h. The soluble fractions were transferred to 96-well white opaque plates, and the fluorescence (580 nm excitation wavelength (20 nm excitation bandwidth), 635 nm emission wavelength (35 nm emission bandwidth)) was measured using a plate reader (TECAN Spark 10 M).

Nrf2 target genes = assay: Gene expression analysis (real-time quantitative PCR) in Hepa1c1c7 cells; assay type: cell-based, mouse; conditions: 16-h incubation, 10 μM or 50 μM
Description: Hepa1c1c7 cells (5 × 10^5 cells/well, n = 3) were seeded on six-well plates, and on the next day were treated with compound 25 (10 μM or 50 μM) or vehicle (0.1 % DMSO) for 16 h. After two washes with PBS, the cells were lysed. RNA was then extracted, cDNA was synthesised, and the levels of mRNA for each gene were determined by real-time quantitative PCR (TaqMan). The levels of 18S mRNA in each sample were used as a control for normalization.

Nrf2 = assay: Immunoblotting of Nrf2 and HO-1 in Hepa1c1c7 cells; assay type: cell-based, mouse; conditions: 6-h incubation, 10 μM or 50 μM
Description: Hepa1c1c7 cells (5 × 10^5 cells/well, n = 3) were seeded on six-well plates, and on the next day were treated with compound 25 (10 μM or 50 μM) or vehicle (0.1 % DMSO) for 6 h. Cells were washed twice in PBS, and lysed in 200 μL of SDS lysis buffer containing 2 % SDS, 62.5 mM Tris-HCl pH 6.8 and 10 % glycerol. The cell lysates were boiled for 3 min, sonicated for 25 s (25 %, 4 s on, 1 s off), supplemented with DTT up to 0.1 M and Bromophenol Blue, and snap-frozen. The lysates were thawed, and 20 μg of total protein was separated on a pre-cast NuPage gel under MOPS buffer, transferred onto nitrocellulose membrane and blotted with anti-Nrf2 (Cell Signaling Technology, clone D1Z9C, 1:1000 dilution), anti-HO1 (Abcam, ab13243, 1:2000 dilution) or anti-alpha tubulin (Abcam, clone EP1332Y, 1:5000 dilution) in 5 % milk in PBS with 0.1 % Tween, followed by appropriate secondary antibodies (LiCor BioSciences, 1:15000 dilutuon) and scanned using Odyssey CLx Imaging System.

T1 sequence (Q14145 322-609): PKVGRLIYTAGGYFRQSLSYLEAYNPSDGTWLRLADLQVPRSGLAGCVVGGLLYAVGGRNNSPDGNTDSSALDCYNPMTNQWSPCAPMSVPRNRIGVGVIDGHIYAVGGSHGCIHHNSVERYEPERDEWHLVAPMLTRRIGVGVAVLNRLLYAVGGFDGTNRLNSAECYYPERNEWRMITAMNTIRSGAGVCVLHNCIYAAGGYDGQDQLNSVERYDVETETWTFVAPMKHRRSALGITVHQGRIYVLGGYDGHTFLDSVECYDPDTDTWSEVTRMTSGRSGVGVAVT

IC50 (Keap1 Kelch domain; 200 nM Keap1 Kelch domain, 1 nM FITC-β-DEETGEF-OH): 31 ± 2 nM | FP IC50 fold lower than the bis-acid 2 (Keap1 Kelch domain; vs 2): ~2 fold | FP IC50 fold lower than the bis-tetrazole 13 (Keap1 Kelch domain; vs 13): ~2.5 fold
SMILES: COc1ccc(S(=O)(=O)N(CC(=O)O)c2ccc(N(Cc3nnn[nH]3)S(=O)(=O)c3ccc(OC)cc3)c3ccccc23)cc1 [Compound 25, N-(4-((N-((1H-tetrazol-5-yl)methyl)-4-methoxyphenyl)sulfonamido)naphthalen-1-yl)-N-((4-methoxyphenyl)sulfonyl)glycine]
Target engagement in the cellular environment (CETSA) (Keap1-mCherry): confirmed | mRNA levels for Nrf2 target genes (NQO1, HO-1, GstP, Gclm, Gclc) (Nrf2 target genes): increased | protein levels of Nrf2 (Nrf2): increased | protein levels of heme oxygenase 1 (HO-1) (Nrf2): increased
